These results are taken from patent US12509452B2, “Substituted-isoxazoline-containing aromatic compound, preparation method therefor, herbicidal composition and use thereof” (QINGDAO KINGAGROOT CHEMICAL COMPOUND CO., LTD., priority 2019, dated 2025).

Assay in all cases: weeding effect in post-emergence stage
Assay type in all cases: in vivo

One experiment concerns Alopecurus japonicus. The procedure, abridged: (§1)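 Read-out is fresh weight growth control rate, binned into levels 0-5 (Level 5 above 85%, Level 0 below 5%), recorded 3 weeks after spraying and averaged over three repeats. Plants were treated at the 2-3 leaf stage with 7.5-500 g a.i./ha plus methyl oleate synergist.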
The test system of a further experiment is Beckmannia syzigachne. An outline of the steps: as §1
For a further experiment, the system named is Conyza japonica. An outline of the steps: as §1
The test system of a further experiment is Rorippa indica. An outline of the steps:
as §1

Regarding `CCOC(=O)[C@]1(C(F)(F)F)CC(c2cc(-n3c(=O)cc(C(F)(F)F)n(C)c3=O)c(F)cc2Cl)=NO1` [135(S)], the “weeding effect in post-emergence stage, Alopecurus japonicus (activity level)” value with Alopecurus japonicus (dose 15 g a.i./ha) was 5 (Level 5: growth control rate is above 85%). Moreover, the “weeding effect in post-emergence stage, Beckmannia syzigachne (activity level)” value in the experiment with Beckmannia syzigachne (dose 15 g a.i./ha) is 5 (Level 5: growth control rate is above 85%). The “weeding effect in post-emergence stage, Conyza japonica (activity level)” value with Conyza japonica (dose 15 g a.i./ha) is given as 5 (Level 5: growth control rate is above 85%). In addition, in the experiment with Rorippa indica (dose 15 g a.i./ha), the “weeding effect in post-emergence stage, Rorippa indica (activity level)” value (from here on “weeding effect … Rorippa indica (activity level)”) was 5 (Level 5: growth control rate is above 85%).
On to `CCOC(=O)[C@@]1(CCF)CC(c2cc(-n3c(=O)cc(C(F)(F)F)n(C)c3=O)c(F)cc2Cl)=NO1` [136(S)], for which the “weeding effect in post-emergence stage, Alopecurus japonicus (activity level)” value in the experiment with Alopecurus japonicus (dose 15 g a.i./ha) is reported as 5 (Level 5: growth control rate is above 85%). Further, the “weeding effect in post-emergence stage, Beckmannia syzigachne (activity level)” value in the experiment on Beckmannia syzigachne (dose 15 g a.i./ha) was 5 (Level 5: growth control rate is above 85%). Also, in the experiment with Conyza japonica (dose 15 g a.i./ha), the “weeding effect in post-emergence stage, Conyza japonica (activity level)” value was 5 (Level 5: growth control rate is above 85%). In the experiment with Rorippa indica (dose 15 g a.i./ha), the “weeding effect … Rorippa indica (activity level)” value is 5 (Level 5: growth control rate is above 85%).
For `CCOC(=O)[C@@]1(CO)CC(c2cc(-n3c(=O)cc(C(F)(F)F)n(C)c3=O)c(F)cc2Cl)=NO1` [142(S)], in the experiment on Alopecurus japonicus (dose 15 g a.i./ha), the “weeding effect in post-emergence stage, Alopecurus japonicus (activity level)” value was 5 (Level 5: growth control rate is above 85%). Also, the “weeding effect in post-emergence stage, Beckmannia syzigachne (activity level)” value in the experiment with Beckmannia syzigachne (dose 15 g a.i./ha) is on record as 5 (Level 5: growth control rate is above 85%). In addition, the “weeding effect in post-emergence stage, Conyza japonica (activity level)” value with Conyza japonica (dose 15 g a.i./ha) is 5 (Level 5: growth control rate is above 85%). Further, in the experiment on Rorippa indica (dose 15 g a.i./ha), the “weeding effect … Rorippa indica (activity level)” value is given as 5 (Level 5: growth control rate is above 85%).
For `CCOC(=O)[C@@]1(C=O)CC(c2cc(-n3c(=O)cc(C(F)(F)F)n(C)c3=O)c(F)cc2Cl)=NO1` [152(S)], in the experiment on Alopecurus japonicus (dose 15 g a.i./ha), the “weeding effect in post-emergence stage, Alopecurus japonicus (activity level)” value is recorded as 5 (Level 5: growth control rate is above 85%). Besides, in the experiment with Beckmannia syzigachne (dose 15 g a.i./ha), the “weeding effect in post-emergence stage, Beckmannia syzigachne (activity level)” value is 5 (Level 5: growth control rate is above 85%). Besides, the “weeding effect in post-emergence stage, Conyza japonica (activity level)” value in the experiment on Conyza japonica (dose 15 g a.i./ha) was 5 (Level 5: growth control rate is above 85%). In the experiment with Rorippa indica (dose 15 g a.i./ha), the “weeding effect … Rorippa indica (activity level)” value is recorded as 5 (Level 5: growth control rate is above 85%).
Consider `CCOC(=O)[C@@]1(C(C)C)CC(c2cc(-n3c(=O)n(C)c(=S)n(C)c3=S)c(F)cc2Cl)=NO1` [204(S)], for which, in the experiment with Alopecurus japonicus (dose 15 g a.i./ha), the “weeding effect in post-emergence stage, Alopecurus japonicus (activity level)” value is recorded as 5 (Level 5: growth control rate is above 85%). Also, the “weeding effect in post-emergence stage, Beckmannia syzigachne (activity level)” value with Beckmannia syzigachne (dose 15 g a.i./ha) is on record as 5 (Level 5: growth control rate is above 85%). The “weeding effect in post-emergence stage, Conyza japonica (activity level)” value in the experiment on Conyza japonica (dose 15 g a.i./ha) is reported as 5 (Level 5: growth control rate is above 85%). In addition, the “weeding effect … Rorippa indica (activity level)” value in the experiment with Rorippa indica (dose 15 g a.i./ha) was 5 (Level 5: growth control rate is above 85%).
In the case of `CCCC[C@@]1(C(=O)OCC)CC(c2cc(-n3c(=O)n(C)c(=S)n(C)c3=S)c(F)cc2Cl)=NO1` [205(S)], the “weeding effect in post-emergence stage, Alopecurus japonicus (activity level)” value in the experiment on Alopecurus japonicus (dose 15 g a.i./ha) is reported as 5 (Level 5: growth control rate is above 85%). Also, in the experiment on Beckmannia syzigachne (dose 15 g a.i./ha), the “weeding effect in post-emergence stage, Beckmannia syzigachne (activity level)” value is on record as 5 (Level 5: growth control rate is above 85%). Further, in the experiment on Conyza japonica (dose 15 g a.i./ha), the “weeding effect in post-emergence stage, Conyza japonica (activity level)” value is on record as 5 (Level 5: growth control rate is above 85%). The “weeding effect … Rorippa indica (activity level)” value with Rorippa indica (dose 15 g a.i./ha) is given as 5 (Level 5: growth control rate is above 85%).
With `CCOC(=O)[C@]1(C(F)(F)F)CC(c2cc(-n3c(=O)n(C)c(=S)n(C)c3=S)c(F)cc2Cl)=NO1` [206(S)], the “weeding effect in post-emergence stage, Alopecurus japonicus (activity level)” value in the experiment with Alopecurus japonicus (dose 15 g a.i./ha) is reported as 5 (Level 5: growth control rate is above 85%). For the same compound, the “weeding effect in post-emergence stage, Beckmannia syzigachne (activity level)” value with Beckmannia syzigachne (dose 15 g a.i./ha) is listed as 5 (Level 5: growth control rate is above 85%). For the same compound, the “weeding effect in post-emergence stage, Conyza japonica (activity level)” value in the experiment on Conyza japonica (dose 15 g a.i./ha) is given as 5 (Level 5: growth control rate is above 85%). The “weeding effect … Rorippa indica (activity level)” value in the experiment with Rorippa indica (dose 15 g a.i./ha) is 5 (Level 5: growth control rate is above 85%).
As for `CCOC(=O)[C@@]1(COC=O)CC(c2cc(-n3c(=O)cc(C(F)(F)F)n(C)c3=O)c(F)cc2Cl)=NO1` [218(S)], the “weeding effect in post-emergence stage, Alopecurus japonicus (activity level)” value in the experiment on Alopecurus japonicus (dose 15 g a.i./ha) was 5 (Level 5: growth control rate is above 85%). Also, the “weeding effect in post-emergence stage, Beckmannia syzigachne (activity level)” value in the experiment with Beckmannia syzigachne (dose 15 g a.i./ha) is on record as 5 (Level 5: growth control rate is above 85%). The “weeding effect in post-emergence stage, Conyza japonica (activity level)” value in the experiment on Conyza japonica (dose 15 g a.i./ha) is reported as 5 (Level 5: growth control rate is above 85%). Besides, in the experiment on Rorippa indica (dose 15 g a.i./ha), the “weeding effect … Rorippa indica (activity level)” value is given as 5 (Level 5: growth control rate is above 85%).
For the compound `CCOC(=O)[C@@]1(COC(=O)C(=O)O)CC(c2cc(-n3c(=O)cc(C(F)(F)F)n(C)c3=O)c(F)cc2Cl)=NO1` [220(S)], the “weeding effect in post-emergence stage, Alopecurus japonicus (activity level)” value in the experiment on Alopecurus japonicus (dose 15 g a.i./ha) was 5 (Level 5: growth control rate is above 85%). Also, the “weeding effect in post-emergence stage, Beckmannia syzigachne (activity level)” value in the experiment on Beckmannia syzigachne (dose 15 g a.i./ha) is reported as 5 (Level 5: growth control rate is above 85%). The “weeding effect in post-emergence stage, Conyza japonica (activity level)” value in the experiment with Conyza japonica (dose 15 g a.i./ha) was 5 (Level 5: growth control rate is above 85%). Further, in the experiment with Rorippa indica (dose 15 g a.i./ha), the “weeding effect … Rorippa indica (activity level)” value is listed as 5 (Level 5: growth control rate is above 85%).
As to `COC(=O)[C@]1(OC)CC(c2cc(-n3c(=O)cc(C(F)(F)F)n(C)c3=O)c(F)cc2Cl)=NO1` [226(S)], the “weeding effect in post-emergence stage, Alopecurus japonicus (activity level)” value in the experiment with Alopecurus japonicus (dose 15 g a.i./ha) is on record as 5 (Level 5: growth control rate is above 85%). The “weeding effect in post-emergence stage, Beckmannia syzigachne (activity level)” value in the experiment with Beckmannia syzigachne (dose 15 g a.i./ha) was 5 (Level 5: growth control rate is above 85%). In addition, the “weeding effect in post-emergence stage, Conyza japonica (activity level)” value in the experiment on Conyza japonica (dose 15 g a.i./ha) was 5 (Level 5: growth control rate is above 85%). In addition, the “weeding effect … Rorippa indica (activity level)” value in the experiment on Rorippa indica (dose 15 g a.i./ha) was 5 (Level 5: growth control rate is above 85%).
Consider `CCOC(=O)[C@]1(CC)CC(c2cc(-n3c(=S)cc(C(F)(F)F)n(C)c3=O)c(F)cc2Cl)=NO1` [228(S)], for which, in the experiment with Alopecurus japonicus (dose 125 g a.i./ha), the “weeding effect in post-emergence stage, Alopecurus japonicus (activity level)” value is reported as 5 (Level 5: growth control rate is above 85%). Further, the “weeding effect in post-emergence stage, Beckmannia syzigachne (activity level)” value in the experiment with Beckmannia syzigachne (dose 125 g a.i./ha) is on record as 5 (Level 5: growth control rate is above 85%). Besides, the “weeding effect in post-emergence stage, Conyza japonica (activity level)” value with Conyza japonica (dose 125 g a.i./ha) was 5 (Level 5: growth control rate is above 85%). Besides, the “weeding effect … Rorippa indica (activity level)” value in the experiment with Rorippa indica (dose 125 g a.i./ha) is listed as 5 (Level 5: growth control rate is above 85%).
Regarding `CCOC(=O)[C@]1(CC)CC(c2cc(-n3c(=O)cc(C(F)(F)F)n(C)c3=S)c(F)cc2Cl)=NO1` [229(S)], in the experiment on Alopecurus japonicus (dose 15 g a.i./ha), the “weeding effect in post-emergence stage, Alopecurus japonicus (activity level)” value is 5 (Level 5: growth control rate is above 85%). The “weeding effect in post-emergence stage, Beckmannia syzigachne (activity level)” value in the experiment with Beckmannia syzigachne (dose 15 g a.i./ha) is listed as 5 (Level 5: growth control rate is above 85%). The “weeding effect in post-emergence stage, Conyza japonica (activity level)” value in the experiment with Conyza japonica (dose 15 g a.i./ha) was 5 (Level 5: growth control rate is above 85%). In the experiment with Rorippa indica (dose 15 g a.i./ha), the “weeding effect … Rorippa indica (activity level)” value was 5 (Level 5: growth control rate is above 85%).
For the compound `CCOC(=O)C1(C)CC(c2cc(-n3c(=O)cc(C(F)(F)F)n(C)c3=O)c(F)cc2Cl)=NO1` (stereo not shown) [Compound 1-9], the “weeding effect in post-emergence stage, Alopecurus japonicus (activity level)” value in the experiment on Alopecurus japonicus (dose 15 g a.i./ha) is on record as 5 (Level 5: growth control rate is above 85%). Also, the “weeding effect in post-emergence stage, Beckmannia syzigachne (activity level)” value with Beckmannia syzigachne (dose 15 g a.i./ha) is 5 (Level 5: growth control rate is above 85%). In the experiment on Conyza japonica (dose 15 g a.i./ha), the “weeding effect in post-emergence stage, Conyza japonica (activity level)” value is given as 5 (Level 5: growth control rate is above 85%). Besides, in the experiment with Rorippa indica (dose 15 g a.i./ha), the “weeding effect … Rorippa indica (activity level)” value is given as 5 (Level 5: growth control rate is above 85%).
